Values joined by “and” are separate entries in the source; they are usually repeats but may differ in a detail not shown here. Identical values can stand only once.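 Assay format: 96-well plates, 48-hour exposure. GI50 = concentration required for 50% inhibition of growth. The concentration for full growth arrest is given as TGI.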 *1 amine or outer side, *2 acyl side, *3 side chain or, on linkers, in order; H or OH if unused. Where a SMILES comes first, the peptide text is derived from it. [ ]: non-standard residue; d: D form. The star is where a group is joined. X31 = CC(=O)N(C)SCC(N[*:1])C(=O)[*:2]; Fmoc = O=C(OCC1c2ccccc2-c2ccccc21)*; For = O=C*
Legend:
Assay in all cases: DTP human tumour cell line panel, 48 h
MCF7 breast = tested on: MCF7 breast
PC-3 prostate = tested on: PC-3 prostate
ACHN renal = tested on: ACHN renal
NCI-H23 lung = tested on: NCI-H23 lung
SW-620 colon = tested on: SW-620 colon
EKVX NSCLC = tested on: EKVX NSCLC
HS 578T breast = tested on: HS 578T breast
SF-539 CNS = tested on: SF-539 CNS
UACC-62 melanoma = tested on: UACC-62 melanoma

| Structure (SMILES) | TGI (MCF7 breast) [µM] | TGI (PC-3 prostate) [µM] | TGI (ACHN renal) [µM] | TGI (NCI-H23 lung) [µM] | TGI (SW-620 colon) [µM] | TGI (EKVX NSCLC) [µM] | TGI (HS 578T breast) [µM] | TGI (SF-539 CNS) [µM] | TGI (UACC-62 melanoma) [µM] | GI50 (PC-3 prostate) | GI50 (NCI-H23 lung) |
| --- | --- | --- | --- | --- | --- | --- | --- | --- | --- | --- | --- |
| Cc1nc(Nc2nc3ccccc3[nH]2)[nH]c(=O)c1CCO | > 100 | > 100 | > 100 | > 100 | > 100 | > 100 | > 100 | > 65.3 | > 100 |  |  |
| S=C(Nc1cccc(C2(N3CCCCC3)CCCCC2)c1)Nc1cccc(C2(N3CCCCC3)CCCCC2)c1 | 64.1 | > 100 | 54 | > 100 | > 100 | > 100 | > 100 | 31.3 | 33.3 |  |  |
| Cn1nc(C(=O)N2CC(CCl)c3c2cc([N+](=O)[O-])c2ccccc32)cc1NC(=O)Nc1cc(C(=O)N2CC(CCl)c3c2cc([N+](=O)[O-])c2ccccc32)nn1C (configuration not stated) | > 100 | > 100 | > 100 | > 100 |  | > 100 |  | 70.2 | > 100 |  |  |
| CC1=C(C(=O)NC(C)(C)C)CC(C(=O)NC(C)(C)C)C(C)N1 (configuration not stated) | > 100 | > 100 | > 100 | > 100 | > 100 | > 100 | > 100 | > 100 | > 100 |  |  |
| Cc1cc(C(O)CNC(C)CCn2cnc3c2c(=O)n(C)c(=O)n3C)ccc1O (configuration not stated) | > 100 | > 100 | > 100 | > 100 | > 100 | > 100 | > 100 | > 100 | > 100 |  |  |
| Cc1[nH]c2ccccc2c1C1=CC(=O)N(c2ccccc2)C1=O | 48.1 | > 100 | > 100 | 60.9 | 37.8 | 83.9 | 43.5 | 27.1 | 26.9 |  |  |
| Nc1cc(N)c(N=Nc2cccc3c(S(=O)(=O)O)cccc23)cc1N=Nc1cc([N+](=O)[O-])ccc1O | > 100 | > 100 | 78.1 | > 100 | > 100 | > 100 | > 100 | > 100 | 59.2 |  |  |
| COc1ccccc1Cn1[nH]c(=O)c2cc([N+](=O)[O-])ccc21 |  |  | > 100 | > 100 | > 100 | > 100 | > 100 | > 100 | > 100 |  |  |
| O=C1/C(=C/c2ccc(Cl)cc2)Sc2scc(-c3cccc([N+](=O)[O-])c3)[n+]21 | > 40.7 | 20.6 | 6.27 | 12.9 | 3.82 | 13.9 | 43.6 | 8.11 | 13.5 |  |  |
| COc1cc2c(cc1OCCCCN1CCN(CCCCOc3cc4c(cc3OC)C(=O)N3CCC[C@H]3C=N4)CC1)N=C[C@@H]1CCCN1C2=O | 45 | 3.12 | > 100 | 0.0914 | > 40 | 7.85 | > 100 | 0.0692 | 0.0347 |  |  |
| CC(=O)N(C)SCC(NC(=O)C(Cc1ccccc1)NC(=O)OCC1c2ccccc2-c2ccccc21)C(=O)NC(Cc1ccccc1)C(=O)NC(Cc1cn(C=O)c2ccccc12)C(=O)NC(CCCCNC(=O)OCC1c2ccccc2-c2ccccc21)C(=O)NC(C(=O)NC(CSN(C)C(C)=O)C(=O)NC(C(N)=O)C(C)O)C(C)O (configuration not stated) (Fmoc-F[X31]FW(For)K(Fmoc)T[X31]T-NH2; configuration not given here) | > 100 | > 100 | > 100 | > 100 | > 100 | > 100 | > 100 | > 100 | > 100 |  |  |
| CNc1ncnc2c1cnn2Cc1cn(CCCCO)nn1 | > 100 | > 100 | > 100 | > 100 | > 100 | > 100 | > 100 | > 100 | > 100 |  |  |
| CSc1nc(C)c(CCCl)c(Cl)n1 |  | > 100 | > 100 | > 100 | > 100 | > 100 | > 100 | > 100 | > 100 |  |  |
| CC(=O)/C(=C(/Br)I)c1ccccc1 | 19.1 | 32.2 | 27.6 | 16.8 | 11.4 | 26.5 | > 66 | 47.8 | > 48.4 |  |  |
| CC(=O)C1=NN(c2ccccc2)C2(S1)SC(c1ccccc1)(c1ccccc1)c1ccccc12 (configuration not stated) |  |  | > 100 | > 100 | > 100 | > 100 |  | > 100 | 48.7 |  |  |
| O=C(O)CN=c1c2ccccc2n(O)c2ccccc12 |  |  | > 100 | > 100 | > 100 | > 100 |  |  | > 100 |  |  |
| O=C(Nc1ccc(S(=O)(=O)Nc2ncccn2)cc1)c1c2ccccc2nc2ccccc12 | > 100 | > 100 | > 100 | > 100 | > 100 | > 100 |  | > 100 | > 100 |  |  |

| Structure (SMILES) | TGI (MCF7 breast) [µM] | TGI (PC-3 prostate) [µM] | TGI (ACHN renal) [µM] | TGI (NCI-H23 lung) [µM] | TGI (SW-620 colon) [µM] | TGI (EKVX NSCLC) [µM] | TGI (HS 578T breast) [µM] | TGI (SF-539 CNS) [µM] | TGI (UACC-62 melanoma) [µM] | GI50 (PC-3 prostate) | GI50 (NCI-H23 lung) |
| --- | --- | --- | --- | --- | --- | --- | --- | --- | --- | --- | --- |
| O=C(O)CCc1nc2cc3ccccc3cc2[nH]c1=O | > 100 | > 100 | > 100 | > 100 | > 100 | > 100 |  | > 100 | > 100 |  |  |
| CC(C)OP(=O)(OC(C)C)C(Nc1cccc(C(F)(F)F)c1)c1ccccc1 (configuration not stated) | > 100 | > 100 | > 100 | > 100 |  | > 100 | > 100 | > 100 | > 100 |  |  |
| Cc1ccc(F)c2c(=O)cc(-c3ccccc3)[nH]c12 |  |  | > 100 | > 100 | > 100 |  |  | > 100 | > 100 |  |  |
| Cc1ccc(Nc2cn(COCc3ccccc3)c(=O)[nH]c2=O)cc1 | > 100 | > 100 | > 100 | > 100 | > 100 | > 100 | > 100 |  | > 100 |  |  |
| CC(Nc1n[nH]c(=O)c2c1nnn2Cc1ccccc1)c1ccccc1 (configuration not stated) | > 100 | > 100 | > 100 | > 100 |  | > 100 |  |  |  | > 100 µM and 20.8 µM | > 100 µM and 43.8 µM |
| Cc1cc(C#N)c(Nc2ccccc2[N+](=O)[O-])s1 | > 100 | 73.9 | > 100 | > 100 | > 100 | 97.2 |  | > 100 | > 100 |  |  |
| CCSC12CC3c4cccc5c4C(CN5C(=O)c4ccccc4)CC3(O1)N(C)C2=O (configuration not stated) |  | 81.2 | > 100 | 69.8 | > 100 | 83.4 | > 100 | > 100 | 67.9 |  |  |
| CC[C@H](C)[C@H]1NC(=O)[C@@H](NC(=O)[C@@H](CC(C)C)N(C)C(=O)C2CCCN2C(=O)[C@H](C)O)[C@@H](C)OC(=O)[C@H](Cc2ccccc2)N(C)C(=O)[C@@H]2CCCN2C(=O)[C@H](CC(C)C)NC(=O)[C@@H](C)C(=O)[C@H](C(C)C)OC(=O)C[C@@H]1O (some centres not stated) | 0.0641 | 0.119 | < 0.00625 |  | > 62.5 | 0.524 | 0.0114 |  | < 0.00625 |  |  |
| Cc1cc(-c2ccc(C(=O)C(c3ccccc3)(c3ccccc3)c3ccccc3)[nH]2)on1 | > 100 | 49.1 |  | 32.4 | 75 | 39.9 | > 100 | > 100 | 37 |  |  |
| CC(=O)NC(CO)C(=O)NC(Cc1ccc(O)cc1)C(=O)NCC(N)=O (stereo not drawn) (Ac-Ser-Tyr-Gly-NH2; configuration not given here) | > 100 | > 100 | > 100 | > 100 | > 100 | > 100 |  | > 100 | > 100 |  |  |
| COc1ccc(/C=C(\Cl)c2ccc(OC)cc2)cc1 |  |  | > 100 | > 100 | > 100 | > 100 |  | > 100 | 99.1 |  |  |
| c1cc(C[S+]2CCCC2)oc1C[S+]1CCCC1 |  | > 100 | > 100 | > 100 | > 100 | > 100 | > 100 | > 100 | > 100 |  |  |
| COC(=O)CCC(C)[C@H]1CCC2C3C(C[C@H](OC(C)=O)[C@@]21C)[C@@]1(C)CCC2(C[C@H]1C[C@H]3OC(C)=O)OOC1(CCCCC1)OO2 (some centres not stated) | > 100 | > 100 | 77.3 | > 100 | > 100 | 18.8 | 63.5 | > 100 |  |  |  |
| COC(=O)CNCC1OC2OC(C)(C)OC2C1N=[N+]=[N-] (configuration not stated) | > 100 | > 100 | > 100 |  | > 100 | > 100 | > 100 | > 100 | > 100 |  |  |
| CC1=C(C)C(=O)C(C2=C(C3=CC(=O)C(C)=C(C)C3=O)C(=O)c3ccccc3C2=O)=CC1=O |  | 7.83 | 6.71 | 10.2 | 4.99 | 5.81 | 43.5 | 10.5 | 4.62 |  |  |
| Cc1ccccc1NC(=O)CSc1nnc(Cc2ccccc2)o1 |  |  | > 100 | > 100 |  |  |  | > 100 | > 100 |  |  |
